Measurements: patent US9034863B2, “Compositions and methods for inhibiting entry of a hepatic virus” (The Board of Trustees of the University of Illinois, priority 2008, dated 2015)

Assays:
[1] = system: HCVcc; assay: HCV cell-to-cell spread, foci-size assay with cell-free spread blocked by anti-E2 antibody; format: cell-based, Hepatitis C virus (HCV)
Experimental: Using an established antibody blocking approach (Timpe, et al. (2008) Hepatology 47:17-24), in which an antibody to the HCV E2 glycoprotein is used to block cell-free virus spread, the role of NPC1L1, CD81, or claudin-1 in cell-to-cell spread was tested. Briefly, subconfluent Huh7 cells were inoculated with HCVcc at a low multiplicity of infection (MOI) of 0.01 ffu/cell for 15 hours to allow sufficient time for initial viral entry into the primary cells (Sabahi, et al. (2010) Virology 407:110-9). Cells were then washed and cell-free virus spread was blocked by addition of an anti-E2 antibody at a concentration which neutralizes extracellular virus infection of cells. In parallel, cultures were co-treated with antibodies to CD81, Claudin-1 or NPC1L1 to determine if blocking of these factors prevents cell-to-cell spread. At seventy two hours post-infection, monolayers were fixed and stained for HCV-positive foci. Spread was determined by the size of the foci, as quantified by the number of cells per foci. Foci composed of 1-2 HCV E2-positive cells, which could have formed via cell division, were scored as infections that had not spread cell-to-cell, and are referred to as one-two cell foci, and represent a baseline for the assay. Foci containing […] cells were scored as infections that had successfully spread cell-to-cell, and are referred to as multicellular foci.
To confirm the role of NPC1L1 in HCV spread and verify that ezetimibe inhibits HCV cell-to-cell spread, Huh7-1 cells were inoculated with HCV JFH-1 at an MOI of 0.01 for 16 hours to allow cell-free entry to initiate infection in a small percentage of cells, before being washed and then incubated with increasing concentrations of ezetimibe. Once again extracellular HCV entry was blocked by the addition of anti-E2 antibody to neutralize cell-free virus in all cultures. […] Cells were fixed at 72 hours post-infection, and then stained to detect the number and the size of the E2-positive foci. The foci were counted and scored as one-two cell foci or as multicellular foci. […] To ensure that multicellular foci were not a result of cell division over the time course of the experiment, the same experiment was repeated in non-growing Huh7-1 cells and similar results were obtained.
Because HCV cell-free spread requires the production and secretion of infectious viral particles from infected cells, an alternative way to block cell-free virus spread is to prevent the release of infectious virus from already infected cells. […] It was of interest to determine whether the VLDL secretory pathway and related virion lipid modifications are required for cell-to-cell spread. […]

[2] = system: intergenotypic HCVcc chimeras; assay: Cell-to-cell spread of intergenotypic HCVcc chimeras in non-growing Huh7-1 cells; format: cell-based, Hepatitis C virus (HCV)
Description: To determine if ezetimibe might be an effective therapeutic for inhibiting HCV spread of other HCV genotypes, intergenotypic HCVcc chimeras were used, in which the core through E2 region of the JFH-1 clone had been replaced with analogous regions of various HCV genotypes including H77C, J4, J8, ED43, SA13, HK6A and QC69 (Gottwein, et al. (2009) Hepatology 49(2):364-77). Again, to avoid issues of cell division, non-growing Huh7-1 cells were infected with the different chimeric viruses, and after 16 hours, the cells were washed and 0 μM or 30 μM ezetimibe was added to parallel cultures. Since the chimeras encode unique E2 proteins and thus may have differing sensitivity to inhibition by the anti-E2 antibody, in this experiment methyl cellulose was added to all cultures as an alternative means of minimizing cell-free virus spread. Seventy-two hours post-infection, the cells were fixed and stained with an antibody to HCV NS5A to detect the size of the foci formed. In all cases, the size of foci formed by each chimera were reduced in the presence of ezetimibe relative to the mock-treated control culture confirming not only that all of these genotypes use the NPC1L1 receptor for cell-to-cell spread, but that the spread of all the chimeric viruses can be inhibited by ezetimibe.
To determine if naringenin affects spread of any of the other HCV genotypes, non-growing Huh7-1 cells were infected with the different intergenic chimeric viruses and after 16 hours, the cells were washed and naringenin was added. Methyl cellulose was added to each well to prevent cell-free virus spread. In parallel, a control set of wells was treated with methyl cellulose alone. Five days post-infection, the cells were fixed and stained to detect the number of HCV NS5A-positive cells.

SMILES	size of foci ([1]; 30 μM added post-viral inoculation)	number of independent infection initiation events (foci of 1-2 E2-positive cells) ([1]; added post-infection, 24 hours post-infection)	size of the E2-positive foci formed ([1]; increasing concentrations added post-inoculation, 72 hours post-infection)	size of foci formed by each chimera ([2]; 30 μM, methyl cellulose, 72 hours post-infection, relative to mock-treated)	HCV cell-to-cell spread (number and size of foci) ([1]; non-growing Huh7-1 cells, five days post-infection, vs vehicle)	size of foci, J8/JFH-1 (2B/JFH-1) chimera ([2]; J8/JFH-1 chimera)	cell-to-cell spread of chimeric viruses ([2]; all chimeric viruses except J8/JFH-1, five days post-infection)
O=C1[C@H](CC[C@H](O)c2ccc(F)cc2)[C@@H](c2ccc(O)cc2)N1c1ccc(F)cc1 [ezetimibe, 1-(4-fluorophenyl)-(3R)-[3-(4-fluorophenyl)-(3S)-hydroxypropyl]-(45)-(4-hydroxyphenyl)-2-azetidinone]	foci of 1-2 cells	did not block infection	dose-dependent inhibition	reduced			
O=C1C[C@@H](c2ccc(O)cc2)Oc2cc(O)cc(O)c21 [naringenin]					inhibition of cell-to-cell spread was not detected	reduced the size of foci	not inhibited
